Assays:
[1] = molecular target: human PRMT8 (Homo sapiens, UniProt Q9NR22); test: PRMT8 Biochemical Assay (3H-SAM Flashplate, peptide substrate); conditions: single experiment or average of multiple experiments
Source text: (§1) S-adenosylmethionine (SAM), S-adenosylhomocysteine (SAH), bicine, Tween20, dimethylsulfoxide (DMSO), bovine skin gelatin (BSG), isopropyl-β-D-thiogalactopyranoside (IPTG), and Tris(2-carboxyethyl)phosphine hydrochloride solution (TCEP) were purchased from Sigma-Aldrich at the highest level of purity possible. ^3H-SAM was purchase from American Radiolabeled Chemicals with a specific activity of 80 Ci/mmol. 384-well streptavidin Flashplates were purchased from PerkinElmer.
Peptide representative of human histone H4 residues 31-45 was synthesized with an N-terminal linker-affinity tag motif and a C-terminal amide cap by 21st Century Biochemicals.
E. coli (BL21(DE3) Gold, Stratagene) made competent by the CaCl2 method were transformed with the PRMT8 construct and ampicillin selection. Protein over-expression was accomplished by growing the PRMT8 expressing E. coli clone and inducing expression with 0.3 mM IPTG at 16° C. The culture was grown for 12 hours, harvested by centrifugation, and stored at −80° C. for purification.
GST-tagged PRMT8 was eluted with 50 mM Tris, 2 mM glutathione, pH 7.8. Pooled fractions were cleaved by thrombin (10 U) and dialysed in buffer A. GST was removed by reloading the cleaved protein sample onto glutathione sepharose column and PRMT8 was collected in the flow-through fractions. PRMT8 was purified further by ceramic hydroxyapatite chromatography. The column was washed with 50 mM phosphate buffer, 100 mM NaCl, 5% glycerol, 5 mM β-mercaptoethanol, pH 7.8 and PRMT8 was eluted by 100 mM phosphate in the same buffer. Protein was concentrated and buffer was exchanged to 50 mM Tris, 300 mM NaCl, 10% glycerol, 5 mM β-mercaptoethanol, pH 7.8 by ultrafiltration.
General Procedure for PRMT8 Enzyme Assays on Peptide Substrates.
(§2) The assays were all performed in a buffer consisting of 20 mM Bicine (pH=7.6), 1 mM TCEP, 0.005% BSG, and 0.002% Tween 20, prepared on the day of use. […] DMSO (1 ul) was added to Columns 11, 12, 23, 24, rows A-H for the maximum signal control and 1 ul of SAH, a known product and inhibitor of PRMT8, was added to columns 11, 12, 23, 24, rows I-P for the minimum signal control. A cocktail (40 ul) containing the PRMT8 enzyme was added by Multidrop Combi (Thermo-Fisher). The compounds were allowed to incubate with PRMT8 for 30 min at room temperature, then a cocktail (10 ul) containing ^3H-SAM and peptide was added to initiate the reaction (final volume=51 ul). […] The assays were stopped by the addition of non-radiolabeled SAM (10 ul) to a final concentration of 400 uM, which dilutes the ^3H-SAM to a level where its incorporation into the peptide substrate is no longer detectable. 50 ul of the reaction in the 384-well polypropylene plate was then transferred to a 384-well Flashplate and the biotinylated peptides were allowed to bind to the streptavidin surface for at least 1 hour before being washed once with 0.1% Tween20 in a Biotek ELx405 plate washer. The plates were then read in a PerkinElmer TopCount plate reader to measure the quantity of ^3H-labeled peptide bound to the Flashplate surface, measured as disintegrations per minute (dpm) or alternatively, referred to as counts per minute (cpm).
(§3) Where dpm=disintegrations per minute, cmpd=signal in assay well, and min and max are the respective minimum and maximum signal controls.
(§4) Where top and bottom are the normally allowed to float, but may be fixed at 100 or 0 respectively in a 3-parameter fit. The Hill Coefficient normally allowed to float but may also be fixed at 1 in a 3-parameter fit. Y is the % inhibition and X is the compound concentration.

[2] = molecular target: T1, human PRMT6 (Homo sapiens, UniProt Q96LA8); test: PRMT6 Biochemical Assay (3H-SAM Flashplate, peptide substrate); conditions: Biochemical IC50 PRMT6, single experiment or average of multiple experiments
T1 construct: Flag-PRMT6-His; made in house; host or cells: HEK 293F cells (BacMam baculovirus)
T1 sequence (Q96LA8 with tags, fused parts or gaps): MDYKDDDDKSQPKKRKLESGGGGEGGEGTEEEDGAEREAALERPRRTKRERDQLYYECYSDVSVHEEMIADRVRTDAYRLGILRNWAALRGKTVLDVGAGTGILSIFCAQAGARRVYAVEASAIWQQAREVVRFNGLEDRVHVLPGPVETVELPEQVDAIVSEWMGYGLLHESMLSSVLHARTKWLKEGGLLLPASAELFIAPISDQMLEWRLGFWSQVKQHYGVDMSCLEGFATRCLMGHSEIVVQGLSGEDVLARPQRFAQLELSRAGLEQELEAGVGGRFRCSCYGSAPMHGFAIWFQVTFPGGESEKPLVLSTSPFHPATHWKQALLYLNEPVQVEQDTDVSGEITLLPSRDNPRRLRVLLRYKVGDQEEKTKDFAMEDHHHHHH
Source text: as §1, with “sodium butyrate” for “isopropyl-β-D-thiogalactopyranoside (IPTG),”
Peptide representative of human histone H4 residues 36-50 was synthesized with an N-terminal linker-affinity tag motif and a C-terminal amide cap by 21st Century Biochemicals.
The amplified gene was subcloned into pFastBacMam (Viva Biotech).
Recombinant baculovirus were generated according to Bac-to-Bac kit instructions (Life Technologies). […] Infections were carried out at 37° C. for 48 hours, harvested by centrifugation, and stored at −80° C. for purification.
Column was washed with 20 mM imidazole in the same buffer and Flag-PRMT6-His was eluted with 150 mM imidazole. […] Flag-PRMT6-His was eluted with 200 ug/ml FLAG peptide in the same buffer. Pooled fractions were dialysed in 20 mM Tris, 150 mM NaCl, 10% glycerol and 5 mM β-mercaptoethanol, pH 7.8.
General Procedure for PRMT6 Enzyme Assays on Peptide Substrates.
as §2, with “of PRMT6,” for “of PRMT8,”, “the PRMT6” for “the PRMT8”, “with PRMT6” for “with PRMT8”, “containing SAM” for “containing ^3H-SAM”
as §3, §4

[3] = molecular target: T2, human PRMT1 (Homo sapiens, UniProt Q99873); test: PRMT1 Biochemical Assay (3H-SAM Flashplate, peptide substrate); conditions: single experiment or average of multiple experiments
T2 construct: GST-tagged PRMT1; made in house; host or cells: High Five insect cells (baculovirus)
T2 sequence (Q99873 with tags, fused parts or gaps): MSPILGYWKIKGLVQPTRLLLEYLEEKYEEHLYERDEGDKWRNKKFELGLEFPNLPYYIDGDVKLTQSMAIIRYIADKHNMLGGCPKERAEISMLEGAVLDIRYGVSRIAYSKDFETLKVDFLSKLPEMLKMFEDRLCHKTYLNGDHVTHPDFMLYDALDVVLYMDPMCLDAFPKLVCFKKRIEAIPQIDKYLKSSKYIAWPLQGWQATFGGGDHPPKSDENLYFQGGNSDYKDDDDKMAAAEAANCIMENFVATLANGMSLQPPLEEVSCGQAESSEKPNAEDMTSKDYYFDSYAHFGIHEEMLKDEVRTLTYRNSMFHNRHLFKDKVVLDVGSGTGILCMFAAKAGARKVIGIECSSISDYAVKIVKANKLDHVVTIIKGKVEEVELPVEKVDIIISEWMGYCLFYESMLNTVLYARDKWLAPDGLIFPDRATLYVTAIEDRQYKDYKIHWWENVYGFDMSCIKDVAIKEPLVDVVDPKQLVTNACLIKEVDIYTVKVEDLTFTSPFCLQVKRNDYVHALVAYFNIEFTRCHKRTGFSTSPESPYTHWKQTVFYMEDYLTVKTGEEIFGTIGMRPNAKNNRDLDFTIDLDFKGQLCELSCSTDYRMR
Source text: as §1, with “(BSG),” for “(BSG), isopropyl-β-D-thiogalactopyranoside (IPTG),”
Recombinant baculovirus were generated according to Bac-to-Bac kit instructions (Life Technologies). […] Infections were carried out at 27° C. for 48 hours, harvested by centrifugation, and stored at −80° C. for purification.
GST-tagged PRMT1 was eluted with 50 mM Tris, 2 mM glutathione, pH 7.8, dialysed in buffer A and concentrated to 1 mg/mL.
General Procedure for PRMT1 Enzyme Assays on Peptide Substrates.
as §2, with “of PRMT1,” for “of PRMT8,”, “the PRMT1” for “the PRMT8”, “with PRMT1” for “with PRMT8”, “containing SAM” for “containing ^3H-SAM”, “of 300” for “of 400”
as §3, §4

Sequence of human PRMT8 (Q9NR22 whole entry): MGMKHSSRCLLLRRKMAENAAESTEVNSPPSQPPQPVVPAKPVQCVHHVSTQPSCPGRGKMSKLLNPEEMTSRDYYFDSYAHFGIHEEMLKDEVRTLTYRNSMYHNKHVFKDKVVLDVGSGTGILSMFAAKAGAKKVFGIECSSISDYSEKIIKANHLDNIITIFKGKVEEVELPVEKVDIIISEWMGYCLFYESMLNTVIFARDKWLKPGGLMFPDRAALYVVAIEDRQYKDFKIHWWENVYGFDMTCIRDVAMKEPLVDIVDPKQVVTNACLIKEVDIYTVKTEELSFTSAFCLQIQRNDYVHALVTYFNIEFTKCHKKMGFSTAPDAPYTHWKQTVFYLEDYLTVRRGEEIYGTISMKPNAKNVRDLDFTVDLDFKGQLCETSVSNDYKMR

Row | Compound | IC50 [1] [nM] | IC50 [2] [nM] | IC50 [3] [nM]
1 | CNCCN(C)Cc1c[nH]nc1-c1ccccc1Oc1ccccc1 [Compound 36] | 22400 | 2440 | 
2 | CNCCN(C)Cc1c[nH]nc1-c1ccccc1OC(F)(F)F [Compound 40] | 6760 | 680 | 700
3 | CNCCN(C)Cc1c[nH]nc1-c1cc(Cl)ccc1OC [Compound 53] | 12800 | 968 | 3160
4 | CNCCN(C)Cc1c[nH]nc1-c1cccc(OC)c1OC [Compound 54] | 7500 | 182 | 569
5 | CCNCCN(C)Cc1c[nH]nc1-c1ccc(F)cc1 [Compound 60] | 1540 | 53.2 | 170
6 | CN(CCN)Cc1c[nH]nc1-c1cc(F)ccc1Cl [Compound 106] | 3110 | 49.8 | 336
7 | CN(CCN)Cc1cnn(CC(O)CO)c1-c1ccc(F)cc1 (centres unmarked) [Compound 113] | 8520 | 594 | 1490
8 | CC(C)CC(=O)N1CCN(c2ccc(-c3n[nH]cc3CN(C)CCN)cc2)CC1 [Compound 180] | 5790 | 20.5 | 648
9 | CN(CCNC1CC1)Cc1c[nH]nc1-c1ccc(C#N)cc1 [Compound 183] | 4820 | 260 | 2420
